Measurements taken from patent US6461997B1, “Triazole sulfones having herbicidal activity” (Monsanto Technology LLC, priority 1999, dated 2002).

Test system: ABUTH (velvetleaf)
Experiment: Pre-emergence herbicidal activity, warm season
Assay type: in vivo, Abutilon theophrasti
Conditions: GR80 = lowest tested rate (300, 100, 30, 10 g/ha) with 80% or greater inhibition; approx. 14 days after treating; 30/21° C.
Protocol: Tables 5 to 8 summarize results of tests conducted as described below to determine the pre-emergence herbicidal activity, in the form of a GR80 value, of illustrative compounds of this invention. […] Compounds of the invention were typically applied at rates of 300, 100, 30, and 10 g/ha. Where herbicidal activity was evident but 80% inhibition was not achieved at the highest rate tested, an asterisk (*) is shown in the following tables.
The pre-emergence tests were conducted by the following procedure. Topsoil was sieved to pass through a 1.27 cm screen. Fertilizer was added to the topsoil and the mixture was then sterilized by heating. The topsoil mixture was placed in a pot and compacted to a depth of 1.0 to 1.25 cm from the top of the pot. Seeds of each of several monocotyledonous and dicotyledonous annual plant species were placed on top of the soil. Additional soil was subsequently placed over the seeds to level-fill the pot. A known amount of each test compound dissolved or suspended in an appropriate organic solvent was diluted with a 50:50 mix of acetone and water and applied to the surface of the soil. After treatment the plants were placed in a greenhouse where they received 0.64 cm of overhead irrigation. All subsequent watering consisted of a light overhead mist and/or subirrigation as needed for germination and growth. Tables 5 and 6 below relate to warm season plant species which were placed after pre-emergence treatment in a greenhouse with a 30/21° C. day/night temperature regime. Tables 7 and 8 below relates to cool season plant species placed after pre-emergence treatment in a greenhouse or growth chamber with an 18/13° C. day/night temperature regime.
Approximately 14 days after planting and treating, the plants were observed and herbicidal efficacy recorded as percent inhibition by comparison with untreated plants.
The plant species usually regarded as weeds which were utilized in the tests are identified in the tables below according to the following legend, in which “d” indicates a dicotyledonous species and “m” a monocotyledonous species. All monocotyledonous species included in the tests herein are grasses.

SMILES | Pre-emergence activity (GR80) ABUTH [g/ha]
CCCN(CC)C(=O)n1cnc(S(=O)(=O)C(F)(F)C(F)F)n1 [Example 63] | 300

Test system: SOLNI (black nightshade)
Experiment: Pre-emergence herbicidal activity, warm season
Assay type: in vivo, Solanum nigrum
Conditions: GR80 = lowest tested rate (300, 100, 30, 10 g/ha) with 80% or greater inhibition; approx. 14 days after treating; 30/21° C.
Summary of the method: (§1)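 Seeds sown in sterilised fertilised topsoil received surface-applied compound in 50:50 acetone/water, typically at 300, 100, 30 and 10 g/ha, then greenhouse-grown at 30/21° C (warm-season species) or 18/13° C (cool-season species). Percent inhibition versus untreated plants was scored at about 14 days, giving GR80; an asterisk marks activity short of 80% at the top rate.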

SMILES | Pre-emergence activity (GR80) SOLNI [g/ha]
CCCN(CC)C(=O)n1cnc(S(=O)(=O)C(F)(F)C(F)F)n1 [Example 63] | 300

Test system: AMARE (redroot pigweed)
Experiment: Pre-emergence herbicidal activity, warm season
Assay type: in vivo, Amaranthus retroflexus
Conditions: GR80 = lowest tested rate (300, 100, 30, 10 g/ha) with 80% or greater inhibition; approx. 14 days after treating; 30/21° C.
Summary of the method: as §1

SMILES | Pre-emergence activity (GR80) AMARE [g/ha]
CCCN(CC)C(=O)n1cnc(S(=O)(=O)C(F)(F)C(F)F)n1 [Example 63] | 100

Test system: CHEAL (common lambsquarters)
Experiment: Pre-emergence herbicidal activity, warm season
Assay type: in vivo, Chenopodium album
Conditions: GR80 = lowest tested rate (300, 100, 30, 10 g/ha) with 80% or greater inhibition; approx. 14 days after treating; 30/21° C.
Summary of the method: as §1

SMILES | Pre-emergence activity (GR80) CHEAL [g/ha]
CCCN(CC)C(=O)n1cnc(S(=O)(=O)C(F)(F)C(F)F)n1 [Example 63] | 100

Test system: POROL (common purslane)
Experiment: Pre-emergence herbicidal activity, warm season
Assay type: in vivo, Portulaca oleracea
Conditions: GR80 = lowest tested rate (300, 100, 30, 10 g/ha) with 80% or greater inhibition; approx. 14 days after treating; 30/21° C.
Summary of the method: as §1

SMILES | Pre-emergence activity (GR80) POROL [g/ha]
CCCN(CC)C(=O)n1cnc(S(=O)(=O)C(F)(F)C(F)F)n1 [Example 63] | 300

Test system: CIRAR (canada thistle (seedling))
Experiment: Pre-emergence herbicidal activity, warm season
Assay type: in vivo, Cirsium arvense
Conditions: GR80 = lowest tested rate (300, 100, 30, 10 g/ha) with 80% or greater inhibition; approx. 14 days after treating; 30/21° C.
Summary of the method: as §1

SMILES | Pre-emergence activity (GR80) CIRAR [g/ha]
CCCN(CC)C(=O)n1cnc(S(=O)(=O)C(F)(F)C(F)F)n1 [Example 63] | 300

Test system: ECHCG (barnyardgrass)
Experiment: Pre-emergence herbicidal activity, warm season
Assay type: in vivo, Echinochloa crus-galli
Conditions: GR80 = lowest tested rate (300, 100, 30, 10 g/ha) with 80% or greater inhibition; approx. 14 days after treating; 30/21° C.
Summary of the method: (§2)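 GR80 values derive from percent inhibition relative to untreated plants, read roughly 14 days after sowing and pre-emergence soil-surface treatment (compound in 50:50 acetone/water; rates typically 10, 30, 100, 300 g/ha). Warm-season weeds grew at 30/21° C day/night, cool-season ones at 18/13° C; an asterisk marks activity without reaching 80% at the highest rate.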

SMILES | Pre-emergence activity (GR80) ECHCG [g/ha]
CCCN(CC)C(=O)n1cnc(S(=O)(=O)C(F)(F)C(F)F)n1 [Example 63] | 100

Test system: PANMI (wild proso millet)
Experiment: Pre-emergence herbicidal activity, warm season
Assay type: in vivo, Panicum miliaceum
Conditions: GR80 = lowest tested rate (300, 100, 30, 10 g/ha) with 80% or greater inhibition; approx. 14 days after treating; 30/21° C.
Summary of the method: as §1

SMILES | Pre-emergence activity (GR80) PANMI [g/ha]
CCCN(CC)C(=O)n1cnc(S(=O)(=O)C(F)(F)C(F)F)n1 [Example 63] | 100

Test system: SORHA (johnsongrass (seedling))
Experiment: Pre-emergence herbicidal activity, warm season
Assay type: in vivo, Sorghum halepense
Conditions: GR80 = lowest tested rate (300, 100, 30, 10 g/ha) with 80% or greater inhibition; approx. 14 days after treating; 30/21° C.
Summary of the method: as §2

SMILES | Pre-emergence activity (GR80) SORHA [g/ha]
CCCN(CC)C(=O)n1cnc(S(=O)(=O)C(F)(F)C(F)F)n1 [Example 63] | 100

Test system: SETFA (giant foxtail)
Experiment: Pre-emergence herbicidal activity, warm season
Assay type: in vivo, Setaria faberi
Conditions: GR80 = lowest tested rate (300, 100, 30, 10 g/ha) with 80% or greater inhibition; approx. 14 days after treating; 30/21° C.
Summary of the method: as §2

SMILES | Pre-emergence activity (GR80) SETFA [g/ha]
CCCN(CC)C(=O)n1cnc(S(=O)(=O)C(F)(F)C(F)F)n1 [Example 63] | 100

Test system: BRAPP (broadleaf signalgrass)
Experiment: Pre-emergence herbicidal activity, warm season
Assay type: in vivo, Brachiaria platyphylla
Conditions: GR80 = lowest tested rate (300, 100, 30, 10 g/ha) with 80% or greater inhibition; approx. 14 days after treating; 30/21° C.
Summary of the method: as §2

SMILES | Pre-emergence activity (GR80) BRAPP [g/ha]
CCCN(CC)C(=O)n1cnc(S(=O)(=O)C(F)(F)C(F)F)n1 [Example 63] | 300

Test system: DIGSA (large crabgrass)
Experiment: Pre-emergence herbicidal activity, warm season
Assay type: in vivo, Digitaria sanguinalis
Conditions: GR80 = lowest tested rate (300, 100, 30, 10 g/ha) with 80% or greater inhibition; approx. 14 days after treating; 30/21° C.
Summary of the method: as §1

SMILES | Pre-emergence activity (GR80) DIGSA [g/ha]
CCCN(CC)C(=O)n1cnc(S(=O)(=O)C(F)(F)C(F)F)n1 [Example 63] | 300
